Data taken from ChEMBL document CHEMBL5604065, “ASAP - DENV-3 NS2B-NS3 protease fluorescence dose response” (2024).
Values joined by “and” are separate entries in the source; they are usually repeats but may differ in a detail not shown here. Equal entries are not always repeated.

Biological target: T1, NS3 protease (dengue virus type 3, UniProt A0A0B5JFF1)
T1 sequence (A0A0B5JFF1 whole entry): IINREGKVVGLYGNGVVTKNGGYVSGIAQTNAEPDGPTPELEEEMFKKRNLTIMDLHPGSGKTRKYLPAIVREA
Assay: Functional biochemical assay to identify treatments for viral infectious disease that targets Dengue virus type 3 NS2B-NS3 protease. Utilizing a direct enzyme activity measurement method, reading the fluorescence intensity is used to characterize the relative potency of inhibitors as IC50.
Parameters: species or system Philippines/H87/1956

| SMILES | IC50 |
| --- | --- |
| NCc1cccc(NC(=O)c2cc(Cl)cc(NC(=O)OCc3ccccc3)c2)c1 | 26.8 µM |
| CCOCCNC(=O)[C@H](Nc1ccc2c(c1)CNC2)c1cc(Cl)cc2[nH]ncc12 | > 99.5 µM |
| O=C(Nc1ccc2c(c1)CNC2)c1cccc2[nH]c(=O)[nH]c12 | 40.8 µM |
| C=CC[C@H]1NCc2cc(NC(=O)c3cc(Cl)cc4[nH]ncc34)ccc21 | 68.2 µM |
| COCCNC(=O)[C@H](Nc1ccc2c(c1)CNC2)c1cc(Cl)cc(C2CC2)c1 | 63.4 µM |
| O=C(NC1CCOCC1)[C@H](Nc1ccc2c(c1)CNC2)c1cc(Cl)cc2[nH]ncc12 | 39.5 µM |
| NCc1ccc(-c2csc3cc(C(=O)Nc4ccc5c(c4)CNC5)ccc23)cc1 | 31.6 µM |
| CC(C)c1cc(Br)cc(C(=O)Nc2ccc3c(c2)CNC3)c1 | > 99.5 µM |
| COc1cc(-c2cc(NC(=O)c3cc(F)cc4[nH]ncc34)cc3c2CNC3)ccn1 | 12.9 µM |
| NCc1csc2cc(C(=O)Nc3ccc4c(c3)CNC4)ccc12 | 9.07 µM |
| Cc1ccccc1-c1nc2c(C(=O)Nc3ccc4c(c3)CNC4)cc(F)cc2[nH]1 | 2.2 µM |
| NCc1cccc(-c2csc3cc(C(=O)Nc4ccc5c(c4)CNC5)ccc23)c1 | 29.8 µM |
| O=C1Cc2c(cc(Br)cc2C(=O)Nc2ccc3c(c2)CNC3)N1 | 17.8 µM |
| O=C(Nc1cc2c(cc1Br)CNC2)c1cc(F)cc2[nH]ncc12 | 21.8 µM |
| O=C(Nc1ccc2c(c1)CNC2)c1cc(Br)cc2[nH]c(=O)[nH]c12 | 21.5 µM |
| C=CC[C@H]1NCc2cc(NC(=O)c3cc(F)cc4[nH]ncc34)ccc21 | 32.3 µM |
| CNC(=O)[C@H](Nc1cc(CN)cc(C(=O)O)c1)c1cc(Cl)cc(C2CC2)c1 | > 99.5 µM |
| O=C(Nc1ccc2c(c1)CNC2)c1cc(Cl)cc2cn[nH]c12 | 41.9 µM |
| O=C(Nc1cc(Cl)cc(C(=O)Nc2ccc3c(c2)CNC3)c1)OCc1ccccc1 | 72.5 µM |
| Cn1cc(CCc2nc3c(C(=O)Nc4ccc5c(c4)CNC5)cc(Cl)cc3[nH]2)cn1 | 23.7 µM |
| O=C(Nc1ccc2c(c1)CNC2)c1cccc2nc(O)ccc12 | > 99.5 µM |
| O=C(Nc1ccc2c(c1)CNC2)c1cc(F)cc2[nH]c(-c3cccc(F)c3)nc12 | 2.73 µM |
| O=C(Nc1ccc2c(c1)CNC2)c1cc(Br)cc2ccccc12 | > 99.5 µM |
| O=C(Nc1ccc2c(c1)CNC2)c1cccc2c(C3CNC3)n[nH]c12 | 9.27 µM |
| O=C(Nc1cc2c(c(C3=CCOCC3)c1)CNC2)c1cc(F)cc2[nH]ncc12 | 8.47 µM |

| SMILES | IC50 |
| --- | --- |
| CNC(=O)[C@H](Nc1cc(CN)cc(-c2nn[nH]n2)c1)c1cc(Cl)cc(C2CC2)c1 | > 99.5 µM |
| O=C(Nc1ccc2c(c1)CNC2)c1cc(Cl)cc(C(F)(F)F)n1 | 10.4 µM |
| O=C(Nc1cc(Cl)cc(-c2ccc3[nH]c(C(=O)O)cc3c2)c1)OCc1ccccc1 | 5 µM |
| O=C(Nc1ccc2c(c1)CNC2)c1cc(F)cc2[nH]ncc12 | 23.4 µM |
| Cc1c(C(=O)Nc2cc([C@H]3CCOC3)ccn2)cc(C2CC2)n1C | > 99.5 µM |
| O=C(Nc1ccc2c(c1)CNC2)c1cc(Br)cc2[nH]c(-c3ccccc3)nc12 | 1.47 µM |
| N#C[C@H](Nc1ccc2c(c1)CNC2)c1cc(Cl)cc2[nH]ncc12 | > 99.5 µM |
| CC(C)NC(=O)[C@H](Nc1ccc2c(c1)CNC2)c1cc(Cl)cc2[nH]c(-c3ccccc3)nc12 | 7.06 µM and 2.21 µM |
| N#Cc1cc2c(cc1NC(=O)c1cc(F)cc3[nH]ncc13)CNC2 | 5.39 µM |
| N=C(N)NCCC[C@H](NC(=O)[C@H](Cc1ccc(CN)cc1)NC(=O)c1ccccc1)B(O)O | 0.819 µM and 0.784 µM and 0.98 µM |
| N#Cc1ccc(-c2nc3c(C(=O)Nc4ccc5c(c4)CNC5)cc(F)cc3[nH]2)cc1 | 1.7 µM |
| CNC(=O)[C@H](Nc1ccc2c(c1)CNC2)c1cc(Cl)cc(C2CC2)c1 | > 99.5 µM |
| N[C@H]1CC[C@H](c2ccc(NC(=O)c3cc(Cl)cc(NC(=O)OCc4ccccc4)c3)cc2)C1 | 5.84 µM |
| CNC(=O)[C@H](Nc1cc(Cl)cc(NC(=O)OCc2ccccc2)c1)c1cccc(-c2nn[nH]n2)c1 | 40.4 µM |
| Cc1c(C(=O)Nc2cc(CCCN)ccn2)cc(C2CC2)n1C | 34.5 µM |
| Cc1cccc(-c2nc3c(C(=O)Nc4ccc5c(c4)CNC5)cc(F)cc3[nH]2)c1 | 6.16 µM |
| Cc1cccc(-c2nc3c(C(=O)Nc4ccc5c(c4)CNC5)cc(Cl)cc3[nH]2)c1O | 4.44 µM |
| CC(C)(c1nc2c(C(=O)Nc3ccc4c(c3)CNC4)cc(F)cc2[nH]1)S(C)(=O)=O | 13.6 µM |
| c1cc(C2CCN(Cc3c[nH]c4ccccc34)CC2)c2ccncc2c1 | > 99.5 µM |
| CNC(=O)[C@H](Nc1cccc(CN)c1)c1cc(Cl)cc(NC(=O)OCc2ccccc2)c1 | > 99.5 µM |
| O=C1Cc2c(cc(F)cc2C(=O)Nc2ccc3c(c2)CNC3)N1 | 8.59 µM |
| O=C(Nc1cc(Cl)cc(C(=O)Nc2ccc3c(c2)CCNC3)c1)OCc1ccccc1 | 24.4 µM |
| O=C(Nc1ccc2c(c1)CNC2)c1cc(Cl)cc2ccncc12 | 69.8 µM |
| Clc1cc(CNc2ccc3c(c2)CNC3)c2cn[nH]c2c1 | 42.2 µM |
| O=C(Nc1ccc2c(c1)CNC2)c1cc(F)cc2[nH]c(-c3ccccc3F)nc12 | 3.44 µM |

| SMILES | IC50 |
| --- | --- |
| O=C(Nc1ccc2c(c1)CNC2)c1cccc(-c2cnco2)c1 | 21.2 µM |
| Cn1c(=O)[nH]c2c(C(=O)Nc3ccc4c(c3)CNC4)cc(Br)cc21 | > 99.5 µM |
| O=C(Nc1ccc2c(c1)CNC2)c1cc(Cl)cc2[nH]ncc12 | 13.4 µM |
| C=CC[C@H](Nc1cc(Cl)cc(NC(=O)OCc2ccccc2)c1)c1cccc(-c2nn[nH]n2)c1 | 6.43 µM |
| CC(C)(C)c1cc(Br)cc(C(=O)Nc2ccc3c(c2)CNC3)c1 | > 99.5 µM |
| O=C(NCC(F)F)[C@H](Nc1ccc2c(c1)CNC2)c1cc(Cl)cc(C2CC2)c1 | 28.5 µM and > 99.5 µM and 23.8 µM |
| O=C(Nc1cc(Cl)cc([C@H]2CN(Cc3ccccc3)C[C@@H]2c2cccc(-c3nn[nH]n3)c2)c1)OCc1ccccc1 | 6.03 µM |
| O=C(NC1CCOCC1)[C@H](Nc1ccc2c(c1)CNC2)c1cc(Cl)cc(C2CC2)c1 | 53.4 µM |
| O=C(Nc1cc(Cl)cc([C@H]2C[C@@H]2c2cccc(C3CCNCC3)c2)c1)OCc1ccccc1 | 4.79 µM |
| CCc1cc(C(=O)Nc2cccc(-n3nn[nH]c3=O)c2)sc1-c1ccc(Cl)cc1 | 11.9 µM |
| CC(C)NC(=O)[C@H](Nc1ccc2c(c1)CNC2)c1cc(Cl)cc2[nH]ncc12 | 26.2 µM |
| C=CC[C@H]1NCc2cc(NC(=O)c3cccc4c3CC(=O)N4)ccc21 | > 99.5 µM |
| Clc1cc([C@@H]2C[C@H]2c2cccc(C3CCNCC3)c2)c2cn[nH]c2c1 | 6.45 µM |
| O=C(Nc1ccc2c(c1)CNCC2)c1cc(Cl)cc2[nH]ncc12 | 93.9 µM |
| O=C1Cc2c(cccc2C(=O)Nc2ccc3c(c2)CNC3)N1 | 14.2 µM |
| Cc1c(C(=O)Nc2cc(-c3cccnc3)ccn2)cc(C2CC2)n1C | 6.22 µM |
| Cn1cc2cc(Cl)cc(C(=O)Nc3ccc4c(c3)CNC4)c2n1 | > 99.5 µM |
| Cc1ccc(NC(=O)c2cc(Cl)cc(NC(=O)OCc3ccccc3)c2)cc1CN | 57.7 µM |
| O=C(Nc1ccc2c(c1)CNC2)c1ccc2[nH]ccc2c1 | > 99.5 µM |
| Cn1cc(CNC(=O)[C@H](Nc2ccc3c(c2)CNC3)c2cc(Cl)cc(C3CC3)c2)cn1 | 81.8 µM |
| O=C(NCC(F)F)[C@H](Nc1ccc2c(c1)CNC2)c1cc(F)cc2[nH]ccc12 | > 99.5 µM |
| O=C(Nc1ccc2c(c1)CNC2)c1cccc2cn[nH]c12 | 37.3 µM |
| O=C(NCCC1CC1)[C@H](Nc1ccc2c(c1)CNC2)c1cc(Cl)cc(C2CC2)c1 | > 99.5 µM |
| O=C(Nc1ccc2c(c1)CNC2)c1cc(F)cc2c1CCC2 | > 99.5 µM |
| O=C(Nc1ccc2c(c1)CNC2)c1cc(F)cc2[nH]c(-c3ccc(F)cc3)nc12 | 2.96 µM |

| SMILES | IC50 |
| --- | --- |
| O=C(Nc1ccc2c(c1)CNC2)c1cc(F)cc2[nH]c(-c3ccccc3)nc12 | 3.57 µM |
| N#C[C@H](Nc1cccc(-c2nn[nH]n2)c1)c1cc(Cl)cc(NC(=O)OCc2ccccc2)c1 | 9.59 µM |
| N=C(N)NCCC[C@H](NC(=O)c1nccs1)C(=O)N[C@@H](CCCCN)C(=O)N[C@@H](C(N)=O)c1ccc(OCc2ccc(C(F)(F)F)cc2)cc1 | 2.22 µM (2×) and 2.34 µM and 1.63 µM and 2.19 µM and 2.45 µM and 1.49 µM |
| O=C(NCC(F)F)[C@H](Nc1ccc2c(c1)CNC2)c1cc(F)cc2[nH]ncc12 | 93.7 µM |
| O=C(Nc1ccc2c(c1)CNC2)c1cc(Cl)cc2nn(-c3ccccc3)nc12 | 4.73 µM |
| O=C(Nc1cc2c(c(C3=CCS(=O)(=O)CC3)c1)CNC2)c1cc(F)cc2[nH]ncc12 | 12.8 µM |
| NCCc1csc2cc(C(=O)Nc3cc([C@H]4CCOC4)ccn3)ccc12 | > 99.5 µM |
| O=C(Nc1ccc2c(c1)CNC2)c1ccc2[nH]cc(C3CCNCC3)c2c1 | 29.2 µM |
| CC(C)c1nnc(-c2nc3c(C(=O)Nc4ccc5c(c4)CNC5)cc(F)cc3[nH]2)s1 | 10.8 µM |
| O=C(Nc1ccc2c(c1)CNC2)c1ccc2c(C3=CCNCC3)csc2c1 | 54.4 µM |
| O=C1Cc2cc(C(=O)Nc3ccc4c(c3)CNC4)ccc2N1 | 7.13 µM and 5.44 µM |
| O=C(Nc1ccc2c(c1)CNC2)c1cc(Cl)cc2cc[nH]c12 | 87.9 µM |
| O=C(Nc1cc(Cl)cc([C@H](C#CCO)Nc2cccc(-c3nn[nH]n3)c2)c1)OCc1ccccc1 | 11.9 µM |
| CN1Cc2ccc(NC(=O)c3cc(Cl)cc4[nH]ncc34)cc2C1 | 92.8 µM |
| O=C(Nc1cc(Cl)cc(C(=O)Nc2cccc([C@H]3C[C@H]3C(=O)O)c2)c1)OCc1ccccc1 | 22.6 µM |
| O=C(Nc1cc(Br)c2c(c1)CNC2)c1cc(F)cc2[nH]ncc12 | 15 µM |
| OCC#C[C@H](Nc1ccc2c(c1)CNC2)c1cc(Cl)cc2[nH]ncc12 | 26.2 µM |
| NCc1cccc([C@H]2C[C@@H]2c2cc(Cl)cc(NC(=O)OCc3ccccc3)c2)c1 | 7.85 µM |
| Clc1ccc2[nH]cc(Cc3ccc(-c4nn[nH]n4)cc3)c2c1 | 44.1 µM |
| Cc1[nH]c2ccccc2c1CN1CCC(c2c[nH]c3ncccc23)CC1 | > 99.5 µM |
| COc1cccc(-c2nc3c(C(=O)Nc4ccc5c(c4)CNC5)cc(F)cc3[nH]2)c1 | 3.72 µM |
| NCCc1csc2cc(C(=O)Nc3ccc4c(c3)CNC4)ccc12 | > 99.5 µM |
| Cc1nc2c(C(=O)Nc3ccc4c(c3)CNC4)cc(Cl)cc2[nH]1 | > 99.5 µM |
| O=C(Nc1ccc2c(c1)CNC2)c1cccc2[nH]c(C(F)(F)F)cc12 | 31.8 µM |
| NCc1ccc([C@H]2C[C@@H]2c2cc(Cl)cc(NC(=O)OCc3ccccc3)c2)cc1 | 6.85 µM |
